Test results published in ChEMBL document CHEMBL3098081, “Synthesis and anticancer potential of benzothiazole linked phenylpyridopyrimidinones and their diones as mitochondrial apoptotic inducers” (Bioorg Med Chem Lett, 2014).

Experiments:
DU-145 = assay: Cytotoxicity against human DU145 cells after 48 hrs by MTT assay; type: functional, cell-based; conditions: DU-145, 48 h
B16 = assay: Cytotoxicity against mouse B16 cells after 48 hrs by MTT assay; type: functional, cell-based; conditions: B16, 48 h
[1] = Cytotoxicity against human ME180 cells after 48 hrs by MTT assay; type: functional, cell-based; conditions: ME-180, 48 h
MCF7 = assay: cells; conditions: Homo sapiens, MCF7, 48 h
Description: Cytotoxicity against human MCF7 cells after 48 hrs by MTT assay

COc1cc(-n2c(=O)n(-c3nc4ccc([N+](=O)[O-])cc4s3)c(=O)c3cccnc32)cc(OC)c1OC
IC50 (DU-145): > 20 µM | IC50 (B16): 19.9 µM | IC50 [1]: > 20 µM | IC50 (MCF7): > 20 µM

O=c1[nH]cc(F)c(=O)[nH]1 [FLUOROURACIL]
IC50 (B16): 4.2 µM | IC50 [1]: 4.9 µM | IC50 (MCF7): 3.5 µM
